For this experiment, the system named is Corynebacterium glutamicum strain DSM13994_Hdap_s. Kind of experiment: Screening on LB agar plates containing 4-hydroxydiaminopimelic acid (growth of colonies). It counts as cell-based. The settings on record: 10 g/l in LB agar, observed over 48 hours; UV mutant clone DSM13994_Hdap_s compared to parent DSM13994. As for the experimental part:
For screening on colonies that are sensitive to 4-hydroxy-diaminopimelic acid, the strain DSM13994 after UV mutagenesis (Sambrook et al., Molecular Cloning: A Laboratory Manual. 2nd Edition, Cold Spring Harbor, New York, 1989) is plated out on LB agar plates containing 4-hydroxydiaminopimelic acid. The agar plates are supplemented with 10 g/l of 4-hydroxydiaminopimelic acid. The growth of the colonies is observed over 48 hours. At this concentration mutants sensitive to 4-hydroxydiamino-pimelic acid may be differentiated from the unaltered parent strain by a delayed growth. […] The strain is identified as DSM13994_Hdap_s.

Take `N[C@H](CC(O)C[C@H](N)C(=O)O)C(=O)O` (stereo partly shown) [4-hydroxydiaminopimelic acid]: the “growth of the colonies” value was “substantially delayed growth”.

For the origin of these results see US20040067561A1, “Process for the production of L-lysine using coryneform bacteria” (priority 2002, published 2004).
